Patent US9364543B2, “Visible light curable hydrogels and methods for using” (Indiana University Research and Technology Corporation, priority 2012, dated 2016)
Where two headings read alike, the source gives them in different places.

What was measured:
[1] = cited from earlier work
[2] = cited from earlier work; remark: listed apart in the source
[3] = Eosin-Y release and retention in thiol-ene hydrogels; format: physicochemical; conditions: for eosin-Y retention in thiol-ene hydrogels: after 48 hours of swelling
Experimental: EXAMPLE. Eosin-Y retention: PEG4NB-DTT hydrogel discs (8 mm in diameter and 1 mm in height) are fabricated. Immediately after polymerization, each hydrogel (8 mm in diameter and 1 mm in height) is immersed into a scintillation vial containing 2 mL of ddH2O. Three separate samples are prepared per experimental condition. These scintillation vials are capped tightly and stored at 37° C. on an orbital shaker. At specific time points, these vials are swirled manually to ensure homogeneous mix and 200 μL of solution is transferred to a well of a transparent 96-well plate. The buffer is changed at every time point. The absorbance (at 515 nm) of the collected samples is determined using a microplate reader (Biotek). Eosin-Y retention was calculated by generating a standard curve prepared from a series of known eosin-Y concentrations (0.02 mM being the highest).

[4] = post-gelation, pH 7.4 PBS, FIG. 10

| Structure (SMILES) | water solubility [1] [wt %] | molar absorptivity (ε) ([2]; at 365 nm) [M⁻¹ cm⁻¹] | molar absorptivity (ε) ([2]; at 405 nm) [M⁻¹ cm⁻¹] | time in which most of the eosin-Y was released from the hydrogel [3, 4] [h] | time to complete release of eosin-Y from the hydrogel [3, 4] [h] | eosin-Y retention in thiol-ene hydrogels ([3]; starting eosin-Y concentration 0.1 mM) [µmol] | eosin-Y retention in thiol-ene hydrogels ([3]; starting eosin-Y concentration 2.0 mM) [µmol] |
| --- | --- | --- | --- | --- | --- | --- | --- |
| Cc1cc(C)c(C(=O)P(=O)([O-])c2ccccc2)c(C)c1.[Li+] [LAP, lithium arylphosphinate] | > 5 | ~200 | ~30 |  |  |  |  |
| O=C([O-])c1ccccc1-c1c2cc(Br)c(=O)c(Br)c-2oc2c(Br)c([O-])c(Br)cc12.[Na+].[Na+] [eosin-Y, Eosin-Y disodium salt] |  |  |  | 0.5 | 6 | ~0.004 | ~0.03 |
| CC(C)(O)C(=O)c1ccc(OCCO)cc1 [I-2959] | < 0.5 | < 10 |  |  |  |  |  |
